From patent publication US20090018111A1, “Novel Antimicrobial Medicament” (priority 2004, published 2009)

Key:
Experiment in all cases: Sensitivity test (agar dilution), clinical isolate
Assay type in all cases: cell-based, Serratia marcescens
[1] = system: S. marcescens 1944950
Procedure: (§1) In addition, the antibacterial activities were tested against strains which are comparatively less sensitive to β-lactam compounds, namely clinically isolated 13 strains of Acinetobacter calcoaceticus and Acinetobacter lwoffi, clinically isolated 11 strains of Serratia marcescens, clinically isolated 12 strains of Burkholderia cepacia, and clinically isolated 15 strains of Pseudomonas aeruginosa.
(§2) According to the standard method of Japan Chemotherapeutic Society (Chemotherapy, vol. […], p 76-79 (1981)) the test was carried out using the agar dilution method. After dissolving test samples in distilled water, agar medium containing the test samples was prepared in such a manner that the final concentration became twice serial dilution by pouring serially diluted combination drug solution or a single drug solution into agar medium. As agar medium was used Mueller Hinton Agar medium (MHA). Then, each strain was cultivated over night at 37° C. in an incubator and suspended in buffered saline solution with gelatin (BSG) in the concentration of about 10^6 CFU/ml. The suspension (about 5 μl) containing test strains was inoculated to the medium containing the test samples by Micro Planter.
(§3) Each drug was weighed, and dissolved in distilled water to give a test sample. When the drugs are used in combination, two kinds of solution containing each drug were mixed so as to be various ratio of concentration to give a mixed solution. When the sample is subjected to sensitivity test, this mixed solution was diluted by twice serial dilution method.
(§4) Furthermore, when the drug is solely used, each test sample was used as it is, and diluted by twice serial dilution method from the maximum concentration to the minimum concentration.

[2] = system: S. marcescens 7155
Procedure: as §1, §2, §3, §4

[3] = system: S. marcescens 14991
Procedure: as §1, §2, §3, §4

[4] = system: S. marcescens 7138
Procedure: as §1, §2, §3, §4

[5] = system: S. marcescens 14424
Procedure: as §1, §2, §3, §4

[6] = system: S. marcescens 2012884
Procedure: as §1, §2, §3, §4

[7] = system: S. marcescens 14689
Procedure: as §1, §2, §3, §4

[8] = system: S. marcescens 14425
Procedure: as §1, §2, §3, §4

[9] = system: S. marcescens 2054522
Procedure: as §1, §2, §3, §4

[10] = system: S. marcescens 1928513
Procedure: as §1, §2, §3, §4

[11] = system: S. marcescens 14981
Procedure: as §1, §2, §3, §4

[12] = Serratia marcescens, 1944950, Concomitant (ME:SM = 1:1)
[13] = Serratia marcescens, 1944950, Concomitant (ME:SM = 1:2)
[14] = Serratia marcescens, 1944950, Concomitant (ME:SM = 1:4)
[15] = Serratia marcescens, 1944950, Concomitant (ME:SM = 2:1)
[16] = Serratia marcescens, 1944950, alone
[17] = Serratia marcescens, 7155, Concomitant (ME:SM = 1:1)
[18] = Serratia marcescens, 7155, Concomitant (ME:SM = 1:2)
[19] = Serratia marcescens, 7155, Concomitant (ME:SM = 1:4)
[20] = Serratia marcescens, 7155, Concomitant (ME:SM = 2:1)
[21] = Serratia marcescens, 7155, alone
[22] = Serratia marcescens, 14991, Concomitant (ME:SM = 1:1)
[23] = Serratia marcescens, 14991, Concomitant (ME:SM = 1:2)
[24] = Serratia marcescens, 14991, Concomitant (ME:SM = 1:4)
[25] = Serratia marcescens, 14991, Concomitant (ME:SM = 2:1)
[26] = Serratia marcescens, 14991, alone
[27] = Serratia marcescens, 7138, Concomitant (ME:SM = 1:1)
[28] = Serratia marcescens, 7138, Concomitant (ME:SM = 1:2)
[29] = Serratia marcescens, 7138, Concomitant (ME:SM = 1:4)
[30] = Serratia marcescens, 7138, Concomitant (ME:SM = 2:1)
[31] = Serratia marcescens, 7138, alone
[32] = Serratia marcescens, 14424, Concomitant (ME:SM = 1:1)
[33] = Serratia marcescens, 14424, Concomitant (ME:SM = 1:2)
[34] = Serratia marcescens, 14424, Concomitant (ME:SM = 1:4)
[35] = Serratia marcescens, 14424, Concomitant (ME:SM = 2:1)
[36] = Serratia marcescens, 14424, alone
[37] = Serratia marcescens, 2012884, Concomitant (ME:SM = 1:1)
[38] = Serratia marcescens, 2012884, Concomitant (ME:SM = 1:2)
[39] = Serratia marcescens, 2012884, Concomitant (ME:SM = 1:4)
[40] = Serratia marcescens, 2012884, Concomitant (ME:SM = 2:1)
[41] = Serratia marcescens, 2012884, alone
[42] = Serratia marcescens, 14689, Concomitant (ME:SM = 1:1)
[43] = Serratia marcescens, 14689, Concomitant (ME:SM = 1:2)
[44] = Serratia marcescens, 14689, Concomitant (ME:SM = 1:4)
[45] = Serratia marcescens, 14689, Concomitant (ME:SM = 2:1)
[46] = Serratia marcescens, 14689, alone
[47] = Serratia marcescens, 14425, Concomitant (ME:SM = 1:1)
[48] = Serratia marcescens, 14425, Concomitant (ME:SM = 1:2)
[49] = Serratia marcescens, 14425, Concomitant (ME:SM = 1:4)
[50] = Serratia marcescens, 14425, Concomitant (ME:SM = 2:1)
[51] = Serratia marcescens, 14425, alone
[52] = Serratia marcescens, 2054522, Concomitant (ME:SM = 1:1)
[53] = Serratia marcescens, 2054522, Concomitant (ME:SM = 1:2)
[54] = Serratia marcescens, 2054522, Concomitant (ME:SM = 1:4)
[55] = Serratia marcescens, 2054522, Concomitant (ME:SM = 2:1)
[56] = Serratia marcescens, 2054522, alone
[57] = Serratia marcescens, 1928513, Concomitant (ME:SM = 1:1)
[58] = Serratia marcescens, 1928513, Concomitant (ME:SM = 1:2)
[59] = Serratia marcescens, 1928513, Concomitant (ME:SM = 1:4)
[60] = Serratia marcescens, 1928513, Concomitant (ME:SM = 2:1)
[61] = Serratia marcescens, 1928513, alone
[62] = Serratia marcescens, 14981, Concomitant (ME:SM = 1:1)
[63] = Serratia marcescens, 14981, Concomitant (ME:SM = 1:2)
[64] = Serratia marcescens, 14981, Concomitant (ME:SM = 1:4)
[65] = Serratia marcescens, 14981, Concomitant (ME:SM = 2:1)
[66] = Serratia marcescens, 14981, alone

SMILES: C[C@H]1C=C(c2csc(SC3=C(C(=O)O)N4C(=O)[C@H]([C@@H](C)O)[C@H]4[C@H]3C)n2)CN1 [SM, (4R,5S,6S)-6-[(1R)-1-Hydroxyethyl]-4-methyl-3-({4-[(5S)-5-methyl-2,5-dihydro-1H-pyrrol-3-yl]-1,3-thiazol-2-yl}sulfanyl)-7-oxo-1-azabicyclo[3.2.0]hept-2-ene-2-carboxylic acid]
- MIC [1, 12]: 8 µg/mL
- MIC [1, 13]: 8 µg/mL
- MIC [1, 14]: 16 µg/mL
- MIC [1, 15]: 4 µg/mL
- MIC [1, 16]: 32 µg/mL
- MIC [2, 17]: 2 µg/mL
- MIC [2, 18]: 2 µg/mL
- MIC [2, 19]: 2 µg/mL
- MIC [2, 20]: 1 µg/mL
- MIC [2, 21]: 8 µg/mL
- MIC [3, 22]: 2 µg/mL
- MIC [3, 23]: 2 µg/mL
- MIC [3, 24]: 4 µg/mL
- MIC [3, 25]: 0.5 µg/mL
- MIC [3, 26]: 32 µg/mL
- MIC [4, 27]: 2 µg/mL
- MIC [4, 28]: 2 µg/mL
- MIC [4, 29]: 2 µg/mL
- MIC [4, 30]: 1 µg/mL
- MIC [4, 31]: 8 µg/mL
- MIC [5, 32]: 8 µg/mL
- MIC [5, 33]: 4 µg/mL
- MIC [5, 34]: 8 µg/mL
- MIC [5, 35]: 2 µg/mL
- MIC [5, 36]: 16 µg/mL
- MIC [6, 37]: 2 µg/mL
- MIC [6, 38]: 4 µg/mL
- MIC [6, 39]: 4 µg/mL
- MIC [6, 40]: 2 µg/mL
- MIC [6, 41]: 8 µg/mL
- MIC [7, 42]: 2 µg/mL
- MIC [7, 43]: 4 µg/mL
- MIC [7, 44]: 8 µg/mL
- MIC [7, 45]: 2 µg/mL
- MIC [7, 46]: 32 µg/mL
- MIC [8, 47]: 0.031 µg/mL
- MIC [8, 48]: 0.063 µg/mL
- MIC [8, 49]: 0.125 µg/mL
- MIC [8, 50]: 0.016 µg/mL
- MIC [8, 51]: 2 µg/mL
- MIC [9, 52]: 1 µg/mL
- MIC [9, 53]: 1 µg/mL
- MIC [9, 54]: 2 µg/mL
- MIC [9, 55]: 0.5 µg/mL
- MIC [9, 56]: 8 µg/mL
- MIC [10, 57]: 1 µg/mL
- MIC [10, 58]: 1 µg/mL
- MIC [10, 59]: 2 µg/mL
- MIC [10, 60]: 0.5 µg/mL
- MIC [10, 61]: 8 µg/mL
- MIC [11, 62]: 1 µg/mL
- MIC [11, 63]: 1 µg/mL
- MIC [11, 64]: 2 µg/mL
- MIC [11, 65]: 0.5 µg/mL
- MIC [11, 66]: 8 µg/mL

SMILES: C[C@@H](O)[C@H]1C(=O)N2C(C(=O)O)=C(S[C@@H]3CN[C@H](C(=O)N(C)C)C3)[C@H](C)[C@H]12 [MEPM, meropenem]
- MIC [1, 12]: 8 µg/mL
- MIC [1, 13]: 4 µg/mL
- MIC [1, 14]: 4 µg/mL
- MIC [1, 15]: 8 µg/mL
- MIC [1, 16]: 8 µg/mL
- MIC [2, 17]: 2 µg/mL
- MIC [2, 18]: 1 µg/mL
- MIC [2, 19]: 0.5 µg/mL
- MIC [2, 20]: 2 µg/mL
- MIC [2, 21]: 2 µg/mL
- MIC [3, 22]: 2 µg/mL
- MIC [3, 23]: 1 µg/mL
- MIC [3, 24]: 1 µg/mL
- MIC [3, 25]: 1 µg/mL
- MIC [3, 26]: 1 µg/mL
- MIC [4, 27]: 2 µg/mL
- MIC [4, 28]: 1 µg/mL
- MIC [4, 29]: 0.5 µg/mL
- MIC [4, 30]: 2 µg/mL
- MIC [4, 31]: 2 µg/mL
- MIC [5, 32]: 8 µg/mL
- MIC [5, 33]: 2 µg/mL
- MIC [5, 34]: 2 µg/mL
- MIC [5, 35]: 4 µg/mL
- MIC [5, 36]: 4 µg/mL
- MIC [6, 37]: 2 µg/mL
- MIC [6, 38]: 2 µg/mL
- MIC [6, 39]: 1 µg/mL
- MIC [6, 40]: 4 µg/mL
- MIC [6, 41]: 4 µg/mL
- MIC [7, 42]: 2 µg/mL
- MIC [7, 43]: 2 µg/mL
- MIC [7, 44]: 2 µg/mL
- MIC [7, 45]: 4 µg/mL
- MIC [7, 46]: 4 µg/mL
- MIC [8, 47]: 0.031 µg/mL
- MIC [8, 48]: 0.031 µg/mL
- MIC [8, 49]: 0.031 µg/mL
- MIC [8, 50]: 0.031 µg/mL
- MIC [8, 51]: 0.031 µg/mL
- MIC [9, 52]: 1 µg/mL
- MIC [9, 53]: 0.5 µg/mL
- MIC [9, 54]: 0.5 µg/mL
- MIC [9, 55]: 1 µg/mL
- MIC [9, 56]: 1 µg/mL
- MIC [10, 57]: 1 µg/mL
- MIC [10, 58]: 0.5 µg/mL
- MIC [10, 59]: 0.5 µg/mL
- MIC [10, 60]: 1 µg/mL
- MIC [10, 61]: 1 µg/mL
- MIC [11, 62]: 1 µg/mL
- MIC [11, 63]: 0.5 µg/mL
- MIC [11, 64]: 0.5 µg/mL
- MIC [11, 65]: 1 µg/mL
- MIC [11, 66]: 1 µg/mL
